The source of these data is paper PMC12344264, “Mechanistic, in-silico and in vitro studies with nitrofurans reveal potent leishmanicidal activity and inhibition of trypanothione reductase” (International Journal for Parasitology: Drugs and Drug …, 2025).

The nature of data set [1]: Cytotoxicity, alamarBlue, 72 h. The format is cell-based, murine. The conditions noted are these: mouse. The protocol: (§1) For cytotoxicity tests, several mammalian cell lines were used. […] Primary cell cultures were also used to evaluate cytotoxicity. […] BMDM cells were differentiated for one week with 30 % […] from L929 cell line.
(§2) The in vitro cytotoxicity of the selected nitrofurans was evaluated in HepG2, RAW 264.7 cells, splenocytes and BMDM. In each well of a 96-well microtitre plate, 100 μL containing 10,000 HepG2 or RAW 264.7 cells were incubated for 24h at 37 °C and 5 % CO2 to allow the cells to settle. For primary cells, 100 μL containing 100,000 BMDM or 1,000,000 splenocytes were added to each well. Subsequently, […] of one-half serial dilutions of each compound diluted in DMEM (for HepG2 cells), RPMI medium (for RAW cells), splenocyte medium (for splenocytes) or BMDM medium supplemented with 10 % GM-CSF (for BMDM), were added to each well. The cytotoxic effect of the compounds was measured after 72 h of incubation at 37 °C and 5 % CO2. For this purpose, a 10 % (v/v) of the alamarBlue™ cell viability reagent (Invitrogen, Fisher Scientific International Inc., Pittsburgh, PA, USA) was added, and the reaction was incubated for 4 h at 37 °C and 5 % CO2. Fluorescence was measured using a Varioskan Lux spectrophotometer (ThermoFisher Scientific, Waltham, MA, USA). Positive controls consisting of 0.1 % (v/v) H2O2, and negative controls, consisting of 0.1 % (v/v) DMSO, were also included on each plate.
(§3) All experiments were carried out in triplicate and included at least three technical replicates. […] The SI was calculated from the CC50/EC50 ratio.

Data set [2] has as its system L. donovani-iRFP intramacrophage amastigotes. The data set can be described thus: Ex vivo antileishmanial effect on intramacrophage amastigotes (infected murine splenocytes, iRFP fluorescence, 72 h). The class given is cell-based. The conditions noted are these: Leishmania donovani, Splenocyte. The protocol:
(§4) For efficacy studies, L. donovani-iRFP, a genetically modified strain of L. donovani LV9 constitutively expressing the gene encoding the infrared fluorescent protein (iRFP) ([Melcón-Fernández et al., 2023]), was used. This strain was grown as promastigotes in Schneider's insect medium (Sigma-Aldrich, Merck, Darmstadt, Germany) supplemented with 20 % (v/v) foetal bovine serum (FBS) (Gibco, ThermoFisher Scientific, Waltham, MA, USA) and […] antibiotic cocktail (100 U/mL penicillin and 100 μg/mL streptomycin) (Hyclone, ThermoFisher Scientific, Waltham, MA, USA) at 26 °C until mice were infected ([Carballeira et al., 2016]). Axenic and intramacrophage amastigotes were isolated from six-to eight-week-old female Balb/c mice (see below) that had been infected intraperitoneally with 1.5 × 10^9 metacyclic L. donovani-iRFP promastigotes. To obtain axenic amastigotes, bone marrow was extracted from the femur and tibia of 8- to 10-week-old infected mice and passed through a 100 μm cell strainer. After centrifugation at 3500 rcf for 10 min at room temperature, cell suspensions were resuspended in medium containing 15 mM KCl; 136 mM KH2PO4; 10 mM K2HPO4.3H2O; 0.5 mM MgSO4.7H2O; 24 mM NaHCO3; 22 mM glucose; 1 mM glutamine, 1 × RPMI 1640 vitamin mix (Sigma-Aldrich, Merck, Darmstadt, Germany), 10 mM folic acid, 100 mM adenosine, 1 × RPMI amino acid mix (Sigma-Aldrich, Merck, Darmstadt, Germany), 5 mg/mL hemin, 25 mM 2-morpholinoethanesulfonic acid (MES) pH 5.6, supplemented with 10 % FBS (Gibco, ThermoFisher Scientific, Waltham, MA, USA) and antibiotic cocktail, and incubated at 37 °C and 5 % CO2. To obtain intramacrophage amastigotes, spleens from infected Balb/c mice were cut into pieces, ground with 2 mg/mL collagenase D (Merck, Darmstadt, Germany) and passed through a 100 μm cell strainer. The splenocyte-enriched cell suspension containing intramacrophage amastigotes was resuspended in RPMI medium (Gibco, Fisher Scientific International Inc., Pittsburgh, PA, USA) supplemented with 20 % FBS, 1 mM sodium pyruvate, 24 mM NaHCO3, 2 mM L-glutamine, 1 × RPMI vitamins, 25 mM HEPES pH 7.2 and antibiotic cocktail ([Ashok et al., 2016]).
(§5) The antileishmanial effect of the nitrofurans selected in this study was tested both in vitro on axenic L. donovani-iRFP amastigotes and ex vivo on intramacrophage amastigotes according to previously published methods ([Melcón-Fernández et al., 2023], [2024]; [Andrés-Rodríguez et al., 2024]). Assays were performed in a final volume of […] containing 20,000 axenic amastigotes or a number of L. donovani-iRFP-infected murine splenocytes representing 150,000 relative fluorescence units (RFU), in each well of a black 384-well microtiter plate with optical bottom. In addition, 40 μL of one-half serial dilutions of each compound in amastigotes culture medium (for axenic amastigotes) or in supplemented RPMI medium (for intramacrophage amastigotes) were added to each well. Positive (amphotericin B at a final concentration of 18 μM) and negative (0.1 % v/v DMSO) controls were included on each plate. The plates were incubated at 37 °C and 5 % CO2 for a maximum of 72 h. Fluorescence emitted by viable L. donovani-iRFP was measured on an Odyssey infrared imaging system (Li-Cor, NE, USA).
as §3

Data set [3] concerns L. donovani-iRFP axenic amastigotes. The data set can be described thus: ROS production by axenic amastigotes (DCFH-DA, flow cytometry). The format is cell-based, Leishmania donovani. The protocol: To assess ROS production in L. donovani-iRFP, axenic amastigotes were treated with nitrofurans at the concentration equivalent to their EC50 calculated in viability experiments. As positive control of oxidative stress induction, cultures were treated with 0.01 % H2O2 (v/v), whereas 0.03 % (v/v) DMSO was added as negative control. After an incubation period of 3 h at 37 °C, cells were harvested by centrifugation at 3500 rcf for 10 min, washed in phosphate-buffered saline (PBS), centrifuged again and resuspended in PBS. Cells were labeled with 5 μM 2′,7′-dichlorofluorescein diacetate (DCFH-DA, MedChemExpress) for 30 min at 37 °C. Then, cells were centrifuged at 3500 rcf for 5 min, washed, and resuspended in PBS. The cell suspension was stored at 4 °C until the analysis by flow cytometry, which was performed in a CytoFLEX SRT (Beckman Coulter). The experiment was carried out in triplicate and included three technical replicates.
(In general: A flow cytometer gives signals particle by particle.)

A further data set deals with T1, L. donovani TryR (Leishmania donovani, UniProt P39050).
T1 construct: endogenous in cells; host or cells: L. donovani-iRFP (LV9) axenic amastigotes, crude cell extract
T1 sequence (P39050 whole entry): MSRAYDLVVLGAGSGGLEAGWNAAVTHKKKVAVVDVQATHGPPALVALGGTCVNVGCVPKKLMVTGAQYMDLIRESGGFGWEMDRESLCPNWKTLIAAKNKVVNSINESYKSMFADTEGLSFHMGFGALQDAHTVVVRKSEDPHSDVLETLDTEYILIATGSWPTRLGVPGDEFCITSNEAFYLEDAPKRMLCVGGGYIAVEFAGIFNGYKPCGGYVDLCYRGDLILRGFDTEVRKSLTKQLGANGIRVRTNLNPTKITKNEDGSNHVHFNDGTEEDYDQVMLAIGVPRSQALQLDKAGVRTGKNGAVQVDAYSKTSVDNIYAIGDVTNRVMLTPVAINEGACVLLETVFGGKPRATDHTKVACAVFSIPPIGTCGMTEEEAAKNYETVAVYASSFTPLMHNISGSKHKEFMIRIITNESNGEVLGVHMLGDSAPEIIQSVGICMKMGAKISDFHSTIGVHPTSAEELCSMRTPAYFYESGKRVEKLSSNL
The data set can be described thus: biochemical. To be noted: for Type of inhibition: Lineweaver-Burk double reciprocal plot, varying T[S]2. As for the experimental part:
The activity of L. donovani TryR was measured in the presence of different concentrations of nitrofurans according to the protocol previously described ([Melcón-Fernández et al., 2023]). Briefly, 1 × 10^10 L. donovani-iRFP axenic amastigotes were washed twice in PBS and lysed with a solution containing 1 mM EDTA, 40 mM HEPES, 50 mM Tris HCl pH 7.5, 2 % (v/v) Triton X-100 and Pierce™ Protease Inhibitors Mini Tablets (ThermoFisher Scientific, Waltham, MA, USA). Cell extracts were prepared by mechanical disruption of the cells with 0.5 mm diameter glass beads (Merck, Darmstadt, Germany) and the supernatant obtained by centrifugation at 10,000 rcf for 5 min at 4 °C was used to measure TryR activity in 96-well plates. […] Cell extracts diluted in Tris HCl pH 7.5 (0.43 μg of total protein in 50 μL) were added to launch the reaction. The negative control consisted of 2.5 % DMSO, whereas the blank reaction included the TryR assay solution without T [S]2. […] To determine steady-state conditions, enzymatic activity was measured at 412 nm (ε = 14,150 M^−1 cm^−1) for a period of up to 120 min (with 5 min intervals) at 26 °C in a Varioskan Lux spectrophotometer (ThermoFisher Scientific, Waltham, MA, USA). The experiment was carried out in triplicate and included three technical replicates.

The nature of data set [4]: Cytotoxicity in primary splenocytes, alamarBlue, 72 h. The class given is cell-based. To be noted: mouse. The protocol:
as §1, §2, §3

Data set [5] concerns L. donovani-iRFP axenic amastigotes. The data set can be described thus: Antileishmanial effect on axenic amastigotes (iRFP fluorescence viability, 72 h). The class given is cell-based. To be noted: Leishmania donovani. The protocol: as §4, §5, §3
Data set [6] in a line: Cytotoxicity, alamarBlue, 72 h. The format is cell-based. The conditions noted are these: human. The protocol: as §1, §2, §3
For orientation: Resazurin is reduced to fluorescent resorufin, in cell work by metabolically active cells.

Data set [7] is described as follows: Cytotoxicity in bone marrow-differentiated macrophages, alamarBlue, 72 h. The format is cell-based. To be noted: mouse. The protocol:
as §1, §2, §3

The subject of another data set is L. major. Further details: method as in Domínguez-Asenjo et al., 2021. The conditions noted are these: ref Domínguez-Asenjo et al., 2021; cited from earlier work.
In a further data set the test system is Leishmania. Further details: method as in Domínguez-Asenjo et al., 2021. To be noted: oral administration, spleen and liver; ref Domínguez-Asenjo et al., 2021; cited from earlier work.
[8] abbreviates: compound at its axenic EC50, 3 h.
Setting [9] is: positive control 0.01 % (v/v), 3 h.

SMILES strings stand for the structures.

Regarding `CC(=O)OC(OC(C)=O)c1ccc([N+](=O)[O-])o1` [5-nitro-2-furaldehide diacetate, 5-Nitro-2-furaldehyde diacetate], the CC50 at 72 h was found to be 15.6 ± 1.27 µM in data set [1], 11 ± 0.28 µM in [4], 24.1 ± 0.59 µM in data set [6] and 11.9 ± 0.46 µM in [7]. Also, the figures for the half-maximal effective concentration (EC50) in [2] and in [5] were 4.6 ± 0.26 µM and 3.48 ± 0.09 µM, respectively. In addition, in data set [3] (setting [8]), the “Negative ROS (unstressed population)” value worked out at 31.1%. The “Positive ROS (stressed population)” value in data set [3] (setting [8]) came out at 68.9%. In addition, the Ki on L. donovani TryR is 77.2 ± 21.9 µM. Besides, at L. donovani TryR, the Type of inhibition entry is listed as “Uncompetitive”.
`O=C1OCCN1/N=C/c1ccc([N+](=O)[O-])o1` [Furazolidone] registered a half-maximal effective concentration (EC50) in data set [2] of 0.09 ± 0.004 µM. Besides, in data set [3] (setting [8]), the “Negative ROS (unstressed population)” value is given as 45.9% and the “Positive ROS (stressed population)” value is recorded as 54.1 ± 5.8%. The “Positive ROS (stressed population)” value in [3] (compound at its axenic EC50, 3 h, listed as FURAZOLIDONE) is 54.1%. Also, on L. donovani TryR, affinity was put at a Ki of 13.7 ± 2.76 µM and the Type of inhibition result is recorded as “Uncompetitive”. Also, in data set [5], a half-maximal effect (EC50) was put at 0.17 ± 0.01 µM.
For `CC1CS(=O)(=O)CCN1/N=C/c1ccc([N+](=O)[O-])o1` (stereo not shown) [Nifurtimox], the half-maximal cytotoxic concentration (CC50) at 72 h in data set [1] (RAW 264.7 cells, 72 h, alamarBlue, read-out: RAW 264.7 cells CC50) amounted to 50.5 ± 2.25 µM; in data set [4] (72 h, alamarBlue, uninfected mice, read-out: Splenocytes CC50) it was 37.8 ± 6.12 µM; in [6] (HepG2 cells, 72 h, alamarBlue, read-out: HepG2 cells CC50), 84.9 ± 12.4 µM; in data set [7] (72 h, alamarBlue, uninfected mice, read-out: BMDM CC50) it was 60.2 ± 4.79 µM. Moreover, the EC50 in [2] is 1 ± 0.07 µM; in [5], 3.96 ± 0.37 µM. Besides, in data set [3] (setting [8]), the “Negative ROS (unstressed population)” value worked out at 31.9%. Moreover, the “Positive ROS (stressed population)” value in data set [3] (setting [8]) was determined as 68.1%. Besides, at L. donovani TryR, affinity was put at a Ki of 33.5 ± 6.93 µM. The Type of inhibition entry on L. donovani TryR is reported as “Uncompetitive”.
With `CSCC1CN(/N=C/c2ccc([N+](=O)[O-])o2)C(=O)O1` (stereo not shown) [Nifuratel], the “outcome in cutaneous leishmaniasis model” value with L. major is given as “complete remission”. Further, the “reduction of parasite load” value in the data set with Leishmania is given as above 70%.
For `OO` [H2O2], in data set [3] (setting [9]), the “Negative ROS (unstressed population)” value is recorded as 28.5% and the “Positive ROS (stressed population)” value was 71.5%.

A word on the CC50: it is the concentration that lowers cell viability or growth by half. In general, EC50 refers to the midpoint of the concentration-response curve. A higher EC50 goes with lower potency in that assay. In general, Ki refers to a dissociation constant, usually derived from enzyme kinetics or from competition with a known ligand. Low readings indicate higher affinity, high ones lower affinity.
